# Measured values from patent US20250152567A1, “COMPOUNDS FOR USE IN THE TREATMENT OF DYSTROPHINOPATHIES” (SOM INNOVATION BIOTECH, S.A., priority 2022, published 2025).
# Structures can show the parent of a compound that is named as a salt.
# Columns and labels:
# [1] = system: utrophin-A expression; test: Utrophin upregulation in mdx^5cv myotubes (qRT-PCR for utrophin-A expression); type: cell-based; details: Mus musculus, Myotube, 72 h, 3 days, RT-PCR, read-out: Utrophin upregulation (average of fold change utrophin vs DMSO ± sem)
# Method: Isolation of satellite cell-derived primary myoblasts was performed via cell-surface antibodies and magnetic separation as previously described, and cultured for their expansion (Motohashi et al., J Vis Exp. 2014 Apr. 8; (86): 50846). Briefly, after collagenase (Worthington, CLS-2) treatment, dissociated cells from mdx^5cv mouse hindlimb muscle were incubated with anti-CD31 monoclonal antibody conjugated to phycoerythrin (eBioscience, 12-0311), anti-CD45 monoclonal antibody conjugated to phycoerythrin (eBioscience, 30-F11), anti-Scal monoclonal antibody conjugated to phycoerythrin (eBioscience, Dec-81) and anti-Integrin a7 (MBL International, ABIN487462), followed by anti-PE microbeads (Miltenyi Biotec, 130-048-801), and then performed LD column (Miltenyi Biotec, 130-042-901) separation. Negative cell populations were incubated with anti-Mouse IgG beads (Miltenyi Biotec, 130-048-402), and then MS column (Miltenyi Biotec, 130-042-201) separation was performed to isolate Integrin a7 (+) satellite cells. Satellite cell-derived mdx^5cv myoblasts were maintained in culture on collagen coated plates in myoblast medium containing 20% FBS and 20 ng/ml bFGF (Invitrogen, PHG0263) in HAM's-F10 medium. Cell cultures were maintained in a humidified incubator at 37° C. with 5% CO2 and 5% 02. The mdx^5cv myoblasts were induced to differentiate into multinucleated myotubes after low serum conditions (DMEM supplemented with 5% horse serum).
# Halofuginone was obtained from Selleck. Veliflapon and cloricromen HCl were obtained from Sigma. Fabomotizole HCl was obtained from MedChemExpress. Difenpiramide was obtained from Enamine. Amopyroquine and alpelisib were obtained from Carbosynth. Benorilate and xipamide were obtained from Fluorochem. Altizide was obtained from Toronto Research Chemicals. All chemical compounds were dissolved with 100% DMSO to adjust to 10 mM stock solutions.
# Every day compounds were added to mdx^5cv myotubes at different concentrations (0.01 to 10 μM) by replacement of the differentiation medium. After 3 days compound exposure, cells were harvested for RNA preparation by TRIzol reagent (15596026, ThermoFisher Scientific). Isolated RNA was used for cDNA synthesis using the Transcriptor First Strand cDNA synthesis kit (04379012001, Roche Molecular Diagnostics) using random primers. Diluted DMSO solution was used as a negative control vehicle. qRT-PCR assay for utrophin-A expression was performed using the following primers: Utro-F1 (Forward) 5′-[…]-3′ (SEQ ID NO: 1) and Utro-R1 (Reverse) 5′-[…]-3′ (SEQ ID NO: 2). 18S rRNA was used as an internal control, with the following primers: 18S-F1 (Forward) 5′-[…]-3′ (SEQ ID NO: 3) and 18S-R1 (Reverse) 5′-[…]-3′ (SEQ ID NO: 4). qPCR was performed using GoTaq qPCR Master Mix (A6001, Promega). All primers were synthesized as custom DNA oligos from Integrated DNA technologies (IDT). Analysis was done using the ACt method. Statistical analysis was performed with at least three independent experiments with between 2 and 4 replicates in each experiment.
# The chemical compounds were tested in mdx^5cv myotubes at different concentrations for 3 days. Halofuginone was used as a positive control for the utrophin up-regulation.
# [2] = system: DMD patient-derived 3D skeletal muscle tissues; test: Force of muscle contraction in response to electrical pulse stimulation in human 3D skeletal muscle tissues; type: cell-based; details: 10 μM; for tetanic index (maximal tetanic specific force / maximal twitch specific force): 2 days (FIG. 3); for maximal twitch contractile force in response to electrical stimulation / tetanic contractile force in response to electrical stimulation: 2 days; for maximal twitch contractile force in response to electrical stimulation: 1 Hz EPS, compared with DMSO treated cells (FIG. 1); for tetanic contractile force in response to electrical stimulation: 50 Hz EPS, compared with DMSO treated cells (FIG. 2)
# Method: Fabrication of Human 3D Skeletal Muscle Tissues and Treatment Human 3D skeletal muscle tissues were fabricated using polydimethylsiloxane (PDMS; Sylgard 184 silicone elastomer kit, Dow Corning) casting molds developed and fabricated as described in Fernández-Costa et al. 2022. Briefly, the casting molds design consists of a square-shaped pool, where the cells/hydrogel solution is seeded, and two vertical, flexible PDMS pillars. PDMS casting molds were prepared for muscle cell culture by first cleaning them by sonication on water with soap, 2-propanol, and Mili-Q water and sterilized with UV light for 15 min. It was followed by 1 h treatment with 1% Plurionic® F-127 (Sigma-Aldrich) solution in cold PBS (100 μl/well) at 4° C. Human 3D skeletal muscle tissues were generated using Immortalized human muscle satellite cells (iHuMSCs) from a DMD patient (DMD 2, clone G82) (Massenet et al. 2020). iHuMSCs were cultured in growth medium (skeletal muscle basal medium (PromoCell GmbH), skeletal muscle supplemental mix (PromoCell GmbH), 10% Fetal Bovine Serum (FBS) (Gibco™), 100 U/mL penicillin and 100 μg/ml streptomycin (Gibco™)). iHuMSCs were released from culture flasks via mild trypsinization. Cells were encapsulated at 2.5×10^7 cells/ml in a cell/hydrogel mixture of 30% v/v Corning® Matrigel® Growth Factor Reduced (GFR) Basement Membrane Matrix (Corning®), 2 units of thrombin from human plasma (Sigma-Aldrich) and 4 mg/mL of fibrinogen from human plasma (50% v/v) (Sigma-Aldrich). 35 μl was pipetted within each PDMS casting mold using cool tips to avoid premature polymerization.
# The cell/hydrogel mixture was polymerized for 30 min at 37° C. followed by incubation in growth medium containing 1 mg/mL of 6-aminocaproic acid (ACA) (Sigma-Aldrich). ACA works as an antifibrinolytic, which avoids fibrin depolymerization. They were kept in growth media for two days and then switched to differentiation medium (Dulbecco's Modified Eagle Medium, high glucose, GlutaMAX™ Supplement (Gibco™), containing 1% KnockOut™ Serum replacement (Gibco™), 1% Insulin-Transferrin-Selenium-Ethanolamine (Gibco™) and 1% Penicillin-Streptomycin-Glutamine (Gibco™)) containing 1 mg/mL of ACA for seven days. Half of the volume of differentiation medium was replaced every two days. After five days of differentiation, the medium was replaced by differentiation medium with the drugs at 10 μM and 0.01% DMSO final concentration. The treatment was kept for 48 hours.
# Human 3D skeletal muscle tissues were electrically stimulated after seven days of differentiation to induce muscle contraction. A custom-made device consisted of a 12-well plate with two graphite electrodes per well located on the lid was used to perform the EPS. PDMS casting molds were placed on a 12-well plate with fresh differentiation medium. The plate was placed on a Zeiss Axio Observer Z1/7 outfitted with the XL S1 cell incubator at 37° C. and 5% CO2. The device was connected to a pulse generator (Multifunction Generator WF1974, NF Corporation), and tissues were stimulated with electrical square-wave pulses of 1 V/mm, 1 ms of pulse width, and frequencies varying from 1 to 50 Hz. The contractibility in response of EPS of 1 Hz of frequency was evaluated to study twitch contraction dynamics. On the other hand, 50 Hz of frequency was applied to induce tetanic contractions.
# Videos of the movement of the pillar of the casting molds in response to the muscle contractions were taken with a ZEISS Axio Observer Z1/7 microscope. Cross-sectional area and location of the tissues on the axis of the pillars were also recorded during the assay. Videos were analyzed using a custom-made Python script and the specific force performed from the tissues was calculated applying […] together with the calculated displacement of the pillar as done in Mestre et al. 2018. Tetanic index was calculated as the ratio between the maximal tetanic specific force divided by the maximal twitch specific force. […]
Compound,fold induction at 0.1 µM [1],fold induction at 1 µM [1],fold induction at 10 µM [1],tetanic index (maximal tetanic specific force / maximal twitch specific force) [2],maximal twitch contractile force in response to electrical stimulation [2],tetanic contractile force in response to electrical stimulation [2]
Cc1cccc(C)c1NC(=O)c1cc(S(N)(=O)=O)c(Cl)cc1O [Xipamide],1.25 ± 0.18,1.05 ± 0.17,1.18 ± 0.1,,,
O=C(CC1NCCCC1O)Cn1cnc2cc(Br)c(Cl)cc2c1=O (stereo not drawn) [Halofuginone],1.44 ± 0.37,1.24 ± 0.1,1.3 ± 0.04,,,
Oc1ccc(Nc2ccnc3cc(Cl)ccc23)cc1CN1CCCC1 [Amopyroquine],1.23 ± 0.11,1.1 ± 0.14,1.23 ± 0.37,,,
O=C(O)[C@@H](c1ccc(OCc2ccc3ccccc3n2)cc1)C1CCCC1 [Veliflapon],1.43 ± 0.24,1.35 ± 0.02,1.05 ± 0.15,significant increase,increase,increase
Cc1nc(NC(=O)N2CCC[C@H]2C(N)=O)sc1-c1ccnc(C(C)(C)C(F)(F)F)c1 [Alpelisib],1.08 ± 0.09,1.45 ± 0.11,1.4 ± 0.13,,,
C=CCSCC1Nc2cc(Cl)c(S(N)(=O)=O)cc2S(=O)(=O)N1 (stereo not drawn) [Altizide],1.09 ± 0.07,1.33 ± 0.09,1.33 ± 0.09,,,
O=C(Cc1ccc(-c2ccccc2)cc1)Nc1ccccn1 [Difenpiramide],1.24 ± 0.13,1.1 ± 0.21,1.23 ± 0.21,significant increase,increase,increase
CC(=O)Nc1ccc(OC(=O)c2ccccc2OC(C)=O)cc1 [Benorilate],1.16 ± 0.12,1.04 ± 0.16,1.58 ± 0.29,,,
"CCOc1ccc2[nH]c(SCCN3CCOCC3)nc2c1 [Fabomotizole hydrochloride, Fabomotizole]",1.34 ± 0.07,1.04 ± 0.1,1.34 ± 0.19,,,
"CCOC(=O)COc1ccc2c(C)c(CCN(CC)CC)c(=O)oc2c1Cl [Cloricromen hydrochloride, Cloricromen]",1.06 ± 0.19,1.07 ± 0.22,1.34 ± 0.13,,,
